According to the kinase profiling compilation of Christmann-Franck et al. (2016):

Key:
Assay in all cases: radiometric filter-binding kinase assay
NEK2 (human) = NEK2 (human) (UniProt P51955)
[1] = system: RPS6KB1 (human), P23443 [T412E]
SRC (human) = SRC (human) (UniProt P12931)
CSK (human) = CSK (human) (UniProt P41240)
RPS6KA1 KD1 KD2 (human) = RPS6KA1 KD1 KD2 (human) (UniProt Q15418)
SYK (human) = SYK (human) (UniProt P43405)
RPS6KA3 KD1 KD2 (human) = RPS6KA3 KD1 KD2 (human) (UniProt P51812)
BTK (human) = BTK (human) (UniProt Q06187)
IKBKB (human) = IKBKB (human) (UniProt O14920)
IKBKE (human) = IKBKE (human) (UniProt Q14164)
[2] = system: AKT2 (human), P31751 [S474D]
MAP2K1 (human) = MAP2K1 (human) (UniProt Q02750)
RPS6KA5 KD1 KD2 (human) = RPS6KA5 KD1 KD2 (human) (UniProt O75582)
MAPK3 (human) = MAPK3 (human) (UniProt P27361)
PLK1 (human) = PLK1 (human) (UniProt P53350)
EPHB4 (human) = EPHB4 (human) (UniProt P54760)
PRKACA (human) = PRKACA (human) (UniProt P17612)
PIM2 (human) = PIM2 (human) (UniProt Q9P1W9)

Sequence of RPS6KA5 KD1 KD2 (human) (O75582 whole entry, looked up): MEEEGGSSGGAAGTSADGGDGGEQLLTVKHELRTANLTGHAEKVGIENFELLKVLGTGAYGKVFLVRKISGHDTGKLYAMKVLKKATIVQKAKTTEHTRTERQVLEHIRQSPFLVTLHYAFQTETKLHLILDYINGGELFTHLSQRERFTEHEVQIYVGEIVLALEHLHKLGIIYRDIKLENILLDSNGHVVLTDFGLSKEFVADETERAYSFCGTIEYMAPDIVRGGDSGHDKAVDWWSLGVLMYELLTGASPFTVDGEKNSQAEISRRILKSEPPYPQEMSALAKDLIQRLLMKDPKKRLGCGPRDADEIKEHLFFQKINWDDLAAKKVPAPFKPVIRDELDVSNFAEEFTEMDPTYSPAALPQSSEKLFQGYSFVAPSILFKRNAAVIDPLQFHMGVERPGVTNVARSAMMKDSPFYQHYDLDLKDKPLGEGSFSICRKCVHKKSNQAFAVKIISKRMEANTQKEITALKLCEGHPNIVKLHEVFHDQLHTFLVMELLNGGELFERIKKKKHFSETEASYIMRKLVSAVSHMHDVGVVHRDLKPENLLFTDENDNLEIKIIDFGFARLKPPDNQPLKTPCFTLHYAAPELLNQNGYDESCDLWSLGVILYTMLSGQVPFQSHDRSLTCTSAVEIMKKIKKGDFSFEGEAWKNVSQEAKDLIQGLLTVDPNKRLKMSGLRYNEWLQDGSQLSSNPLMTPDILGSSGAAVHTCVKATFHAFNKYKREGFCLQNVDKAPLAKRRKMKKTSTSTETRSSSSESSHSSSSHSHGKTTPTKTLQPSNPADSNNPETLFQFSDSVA
Sequence of IKBKE (human) (Q14164 whole entry, looked up): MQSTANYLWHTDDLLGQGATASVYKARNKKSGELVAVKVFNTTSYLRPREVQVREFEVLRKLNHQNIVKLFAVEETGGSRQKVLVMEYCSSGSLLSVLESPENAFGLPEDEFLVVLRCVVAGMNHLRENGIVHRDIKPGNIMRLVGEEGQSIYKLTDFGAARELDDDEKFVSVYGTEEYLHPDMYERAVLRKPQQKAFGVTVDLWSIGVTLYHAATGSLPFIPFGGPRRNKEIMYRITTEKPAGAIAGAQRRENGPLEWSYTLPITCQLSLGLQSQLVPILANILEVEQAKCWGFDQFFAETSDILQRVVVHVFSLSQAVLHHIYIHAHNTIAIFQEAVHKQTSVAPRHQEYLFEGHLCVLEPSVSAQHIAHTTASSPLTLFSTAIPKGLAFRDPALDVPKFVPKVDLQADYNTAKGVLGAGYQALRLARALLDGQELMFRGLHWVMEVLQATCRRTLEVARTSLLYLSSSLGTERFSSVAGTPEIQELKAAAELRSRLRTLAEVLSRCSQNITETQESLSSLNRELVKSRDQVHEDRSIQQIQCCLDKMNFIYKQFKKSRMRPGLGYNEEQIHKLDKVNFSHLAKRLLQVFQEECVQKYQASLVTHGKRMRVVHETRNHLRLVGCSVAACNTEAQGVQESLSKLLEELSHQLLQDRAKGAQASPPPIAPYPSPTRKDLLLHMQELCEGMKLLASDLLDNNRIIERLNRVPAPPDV
Sequence of MAP2K1 (human) (Q02750 whole entry, looked up): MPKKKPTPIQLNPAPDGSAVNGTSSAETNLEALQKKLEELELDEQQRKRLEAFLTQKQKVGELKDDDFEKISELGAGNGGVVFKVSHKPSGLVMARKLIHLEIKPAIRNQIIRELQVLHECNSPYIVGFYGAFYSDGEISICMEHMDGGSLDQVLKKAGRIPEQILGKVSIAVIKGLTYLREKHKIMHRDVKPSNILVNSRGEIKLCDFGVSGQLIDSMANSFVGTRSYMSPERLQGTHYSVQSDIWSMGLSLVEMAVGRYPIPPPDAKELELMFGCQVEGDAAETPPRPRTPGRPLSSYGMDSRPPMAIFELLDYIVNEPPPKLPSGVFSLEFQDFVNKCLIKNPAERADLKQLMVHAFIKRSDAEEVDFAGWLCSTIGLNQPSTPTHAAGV
Sequence of CSK (human) (P41240 whole entry, looked up): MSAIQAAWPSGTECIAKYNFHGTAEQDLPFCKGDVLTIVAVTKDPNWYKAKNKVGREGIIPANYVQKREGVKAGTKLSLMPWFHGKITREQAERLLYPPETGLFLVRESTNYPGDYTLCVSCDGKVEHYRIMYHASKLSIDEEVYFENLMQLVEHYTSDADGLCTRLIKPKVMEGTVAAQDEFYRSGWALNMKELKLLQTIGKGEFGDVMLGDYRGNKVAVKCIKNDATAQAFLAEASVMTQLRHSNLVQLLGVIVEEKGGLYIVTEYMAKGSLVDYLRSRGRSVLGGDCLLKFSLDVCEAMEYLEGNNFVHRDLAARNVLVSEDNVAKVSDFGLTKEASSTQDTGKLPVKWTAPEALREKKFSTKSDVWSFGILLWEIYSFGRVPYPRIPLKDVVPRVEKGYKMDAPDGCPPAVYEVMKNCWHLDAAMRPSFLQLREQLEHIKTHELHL
Sequence of RPS6KA1 KD1 KD2 (human) (Q15418 whole entry, looked up): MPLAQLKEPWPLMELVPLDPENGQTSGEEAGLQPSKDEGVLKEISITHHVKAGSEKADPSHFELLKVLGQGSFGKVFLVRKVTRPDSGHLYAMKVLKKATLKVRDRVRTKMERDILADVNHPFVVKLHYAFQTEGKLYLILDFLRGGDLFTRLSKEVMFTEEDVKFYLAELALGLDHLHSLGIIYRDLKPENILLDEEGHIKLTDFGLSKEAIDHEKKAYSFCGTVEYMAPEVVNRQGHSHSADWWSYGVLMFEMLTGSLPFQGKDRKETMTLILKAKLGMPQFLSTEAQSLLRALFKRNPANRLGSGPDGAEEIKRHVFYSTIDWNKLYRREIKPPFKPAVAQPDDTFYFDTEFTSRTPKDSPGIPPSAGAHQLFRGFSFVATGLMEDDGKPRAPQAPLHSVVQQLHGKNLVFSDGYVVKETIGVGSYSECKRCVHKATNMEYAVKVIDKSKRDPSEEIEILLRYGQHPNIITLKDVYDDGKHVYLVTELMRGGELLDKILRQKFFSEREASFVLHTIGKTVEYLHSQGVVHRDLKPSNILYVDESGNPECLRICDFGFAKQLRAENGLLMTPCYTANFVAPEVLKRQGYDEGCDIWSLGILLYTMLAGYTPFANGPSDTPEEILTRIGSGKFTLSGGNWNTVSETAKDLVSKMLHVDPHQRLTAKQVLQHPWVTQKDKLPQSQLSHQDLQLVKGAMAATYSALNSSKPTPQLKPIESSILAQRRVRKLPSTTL
Sequence of SRC (human) (P12931 whole entry, looked up): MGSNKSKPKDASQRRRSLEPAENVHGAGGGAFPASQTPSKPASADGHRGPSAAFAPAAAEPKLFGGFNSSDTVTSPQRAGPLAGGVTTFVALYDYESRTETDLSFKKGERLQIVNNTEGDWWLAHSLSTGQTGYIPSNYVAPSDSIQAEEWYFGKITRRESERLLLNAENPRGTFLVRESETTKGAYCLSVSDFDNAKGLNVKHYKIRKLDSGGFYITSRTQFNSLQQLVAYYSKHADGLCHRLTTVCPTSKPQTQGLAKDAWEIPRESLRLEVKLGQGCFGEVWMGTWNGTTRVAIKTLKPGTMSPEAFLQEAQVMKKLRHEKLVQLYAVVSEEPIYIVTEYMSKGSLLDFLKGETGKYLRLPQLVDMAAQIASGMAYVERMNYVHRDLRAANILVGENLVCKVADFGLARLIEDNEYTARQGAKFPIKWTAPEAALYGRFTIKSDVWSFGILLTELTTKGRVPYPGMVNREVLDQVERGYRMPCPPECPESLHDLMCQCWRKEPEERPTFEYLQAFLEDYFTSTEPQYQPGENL
Sequence of AKT2 (human), P31751 [S474D] (P31751 whole entry S474D, looked up): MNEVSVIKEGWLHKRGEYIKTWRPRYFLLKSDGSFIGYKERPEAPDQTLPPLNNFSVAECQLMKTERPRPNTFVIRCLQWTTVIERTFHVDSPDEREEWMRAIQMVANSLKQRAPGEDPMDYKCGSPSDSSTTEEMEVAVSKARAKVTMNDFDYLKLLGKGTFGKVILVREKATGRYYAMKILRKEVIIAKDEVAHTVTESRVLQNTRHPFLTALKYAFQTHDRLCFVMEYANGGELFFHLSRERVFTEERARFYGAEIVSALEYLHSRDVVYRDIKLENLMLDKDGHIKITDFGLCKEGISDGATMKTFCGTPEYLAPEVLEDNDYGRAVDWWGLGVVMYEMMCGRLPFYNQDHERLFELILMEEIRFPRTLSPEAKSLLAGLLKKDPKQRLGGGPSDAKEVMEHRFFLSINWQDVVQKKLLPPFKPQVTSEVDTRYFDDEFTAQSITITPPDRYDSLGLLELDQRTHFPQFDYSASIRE
Sequence of BTK (human) (Q06187 whole entry, looked up): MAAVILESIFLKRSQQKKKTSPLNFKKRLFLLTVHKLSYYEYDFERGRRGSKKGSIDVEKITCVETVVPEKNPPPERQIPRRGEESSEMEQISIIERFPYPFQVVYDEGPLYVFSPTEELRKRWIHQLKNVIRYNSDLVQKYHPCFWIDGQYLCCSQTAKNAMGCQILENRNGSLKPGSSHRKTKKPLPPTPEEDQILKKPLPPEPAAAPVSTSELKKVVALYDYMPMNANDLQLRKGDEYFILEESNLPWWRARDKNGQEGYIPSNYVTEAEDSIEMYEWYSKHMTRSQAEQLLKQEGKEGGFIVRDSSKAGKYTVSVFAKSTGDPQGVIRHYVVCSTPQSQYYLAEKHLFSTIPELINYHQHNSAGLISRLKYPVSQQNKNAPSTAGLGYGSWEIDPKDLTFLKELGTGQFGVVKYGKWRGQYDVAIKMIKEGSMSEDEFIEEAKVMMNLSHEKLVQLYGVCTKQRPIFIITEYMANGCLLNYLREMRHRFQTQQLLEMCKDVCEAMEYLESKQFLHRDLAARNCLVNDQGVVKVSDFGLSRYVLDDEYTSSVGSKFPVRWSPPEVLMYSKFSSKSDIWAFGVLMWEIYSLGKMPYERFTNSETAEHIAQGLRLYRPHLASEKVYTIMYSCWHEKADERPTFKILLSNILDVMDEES

Compound: CNC(=O)C1[C@H]2O[C@@](C)([C@@H]1N)n1c3ccccc3c3c4c(c5c6ccccc6n2c5c31)C(=O)NC4 (some centres not stated)
- residual activity (NEK2 (human); compound 0.1 µM): 105%
- residual activity (NEK2 (human); compound 1.0 µM): 66%
- residual activity ([1]; compound 0.01 µM): 37%
- residual activity ([1]; compound 0.1 µM): 6%
- residual activity ([1]; compound 1.0 µM): 3%
- residual activity (SRC (human); compound 0.01 µM): 78%
- residual activity (SRC (human); compound 0.1 µM): 19%
- residual activity (SRC (human); compound 1.0 µM): 6%
- residual activity (CSK (human); compound 0.01 µM): 112%
- residual activity (CSK (human); compound 0.1 µM): 73%
- residual activity (CSK (human); compound 1.0 µM): 20%
- residual activity (RPS6KA1 KD1 KD2 (human); compound 0.01 µM): 9%
- residual activity (RPS6KA1 KD1 KD2 (human); compound 0.1 µM): 3%
- residual activity (RPS6KA1 KD1 KD2 (human); compound 1.0 µM): 1%
- residual activity (SYK (human); compound 0.01 µM): 21%
- residual activity (SYK (human); compound 0.1 µM): 6%
- residual activity (SYK (human); compound 1.0 µM): 2%
- residual activity (RPS6KA3 KD1 KD2 (human); compound 0.01 µM): 16%
- residual activity (RPS6KA3 KD1 KD2 (human); compound 0.1 µM): 7%
- residual activity (RPS6KA3 KD1 KD2 (human); compound 1.0 µM): 6%
- residual activity (BTK (human); compound 0.01 µM): 49%
- residual activity (BTK (human); compound 0.1 µM): 11%
- residual activity (BTK (human); compound 1.0 µM): 9%
- residual activity (IKBKB (human); compound 0.01 µM): 75%
- residual activity (IKBKB (human); compound 0.1 µM): 24%
- residual activity (IKBKB (human); compound 1.0 µM): 6%
- residual activity (IKBKE (human); compound 0.01 µM): 6%
- residual activity (IKBKE (human); compound 0.1 µM): 1%
- residual activity (IKBKE (human); compound 1.0 µM): 2%
- residual activity ([2]; compound 0.01 µM): 109%
- residual activity ([2]; compound 0.1 µM): 51%
- residual activity ([2]; compound 1.0 µM): 8%
- residual activity (MAP2K1 (human); compound 0.01 µM): 9%
- residual activity (MAP2K1 (human); compound 0.1 µM): 0%
- residual activity (MAP2K1 (human); compound 1.0 µM): 0%
- residual activity (RPS6KA5 KD1 KD2 (human); compound 0.01 µM): 41%
- residual activity (RPS6KA5 KD1 KD2 (human); compound 0.1 µM): 10%
- residual activity (RPS6KA5 KD1 KD2 (human); compound 1.0 µM): 2%
- residual activity (MAPK3 (human); compound 0.1 µM): 4%
- residual activity (MAPK3 (human); compound 1.0 µM): 2%
- residual activity (PLK1 (human); compound 0.01 µM): 68%
- residual activity (PLK1 (human); compound 0.1 µM): 38%
- residual activity (PLK1 (human); compound 1.0 µM): 22%
- residual activity (EPHB4 (human); compound 0.01 µM): 102%
- residual activity (EPHB4 (human); compound 0.1 µM): 60%
- residual activity (EPHB4 (human); compound 1.0 µM): 8%
- residual activity (PRKACA (human); compound 0.01 µM): 29%
- residual activity (PRKACA (human); compound 0.1 µM): 5%
- residual activity (PRKACA (human); compound 1.0 µM): 2%
- residual activity (PIM2 (human); compound 0.01 µM): 93%
- residual activity (PIM2 (human); compound 0.1 µM): 30%
- residual activity (PIM2 (human); compound 1.0 µM): 4%
